Measurements: patent US4855323A, “Leukotriene antagonists, a process for the preparation thereof, and the use thereof for the treatment of diseases” (Hoechst Aktiengesellschaft, priority 1987, dated 1989)
Values after ≈ are worked out from the molar mass of the structure shown.

How the values were obtained:
Assay type in all cases: cell-based
[1] = system: LTD4-induced contraction of strips of guinea pig lung; assay: inhibition of LTD4-induced contraction of strips of guinea pig lung; settings: Cavia porcellus; LTD4 3 ng/ml; indomethacin-pretreated strips (10^-6 g/ml); test substance added after maximum contraction plateau; 37° C.; read-out: IC50 with respect to LTD4
Procedure: (§1) The leukotriene-antagonistic action of the substances of the general formula I according to the invention is determined by the inhibition of the leukotriene-induced contraction of strips of guinea pig lung. The method which is used is a modification of the test described by Foreman, Shelly and Weber (Arch. Int. Pharmacodyn. 278, 193-206 (1985)).
(§2) Guinea pigs are sacrificed by an overdose of ether. The thoracic cavity is opened; the lungs are removed and cut into strips 5 cm long, which are stored in physiological saline. For the measurement, the strips of lung are placed in an organ bath filled with Ringer's solution which is equilibrated at 37° C. and through which carbogen (O2 /CO2 95:5 parts by volume) is passed. The strips are left to equilibrate under a load of 0.5-1 g for 30-60 minutes. The strips of lung are pretreated with indomethacin (10^-6 g/ml of bath liquid) before the test starts.
(§3) The contraction is induced by adding LTC4, LTD4 or LTE4 in a concentration of 3 ng/ml of bath liquid. The test substances are administered therapeutically into the bath, after the maximum contraction plateau has been reached, in several concentrations and at time intervals of 10 minutes. 6-12 strips of lung are used for each concentration of the test substance.
(§4) The concentrations of the test substances at which the contraction is reduced by 50% (IC50) are indicated in μg/ml.

[2] = system: LTC4-induced contraction of strips of guinea pig lung; assay: inhibition of LTC4-induced contraction of strips of guinea pig lung; settings: Cavia porcellus; LTC4 3 ng/ml; indomethacin-pretreated strips (10^-6 g/ml); test substance added after maximum contraction plateau; 37° C.; read-out: IC50 with respect to LTC4
Procedure: as §1, §2, §3, §4

[3] = system: LTE4-induced contraction of strips of guinea pig lung; assay: inhibition of LTE4-induced contraction of strips of guinea pig lung; settings: Cavia porcellus; LTE4 3 ng/ml; indomethacin-pretreated strips (10^-6 g/ml); test substance added after maximum contraction plateau; 37° C.; read-out: IC50 with respect to LTE4
Procedure: as §1, §2, §3, §4

| SMILES | IC50 [1] [µg/mL] | IC50 [2] [µg/mL] | IC50 [3] [µg/mL] |
| --- | --- | --- | --- |
| COC(=O)CCSCC(O)Cc1ccccc1OCc1ccccc1 (racemic) [Compound A, Methyl (6RS)-7-(2-benzyloxyphenyl)-6-hydroxy-4-thiaheptanoate] | 0.6 (≈ 1.66 µM) | 0.6 to 1 (≈ 1.66 to 2.77 µM) | 0.6 to 1 (≈ 1.66 to 2.77 µM) |
| COC(=O)CCSCC(O)Cc1cc(Cl)ccc1OCc1ccccc1 (racemic) [Compound D, Methyl (6RS)-7-(2-benzyloxy-5-chlorophenyl)-6-hydroxy-4-thiaheptanoate] | 3 (≈ 7.6 µM) | 6 to 10 (≈ 15.2 to 25.3 µM) | 1 to 3 (≈ 2.53 to 7.6 µM) |
| OCCSCC(O)Cc1cccc(C2CCCC2)c1OCc1ccccc1 (racemic) [Compound E, (5RS)-6-(2-benzyloxy-3-cyclopentylphenyl)-3-thiahexane-1,5-diol] | 6 to 10 (≈ 15.5 to 25.9 µM) | 6 to 10 (≈ 15.5 to 25.9 µM) | 1 to 3 (≈ 2.59 to 7.76 µM) |

The next lines start with the values.

| IC50 [1] [µg/mL] | IC50 [2] [µg/mL] | IC50 [3] [µg/mL] | SMILES |
| --- | --- | --- | --- |
| 3 to 6 (≈ 7.24 to 14.5 µM) | 3 to 6 (≈ 7.24 to 14.5 µM) | 3 (≈ 7.24 µM) | O=C(O)CCSCC(O)Cc1cccc(C2CCCC2)c1OCc1ccccc1 (racemic) [Compound C, (6RS)-7-(2-Benzyloxy-3-cyclopentylphenyl)-6-hydroxy-4-thiaheptanoic acid] |
| 1 (≈ 2.33 µM) | 0.6 (≈ 1.4 µM) | 3 (≈ 7 µM) | COC(=O)CCSCC(O)Cc1cccc(C2CCCC2)c1OCc1ccccc1 (racemic) [Compound B, Methyl (6RS)-7-(2-benzyloxy-3-cyclopentylphenyl)-6-hydroxy-4-thiaheptanoate] |
